These compounds were tested against human VPS34 (Homo sapiens (Human), UniProt Q8NEB9) (assay: Human VPS34 enzyme assay (Adapta TR-FRET ADP detection)). Conditions: not given.
Format: biochemical
Parameters: Percent Inhibition: dose or concentration left out as unconfirmed

human VPS34, sequence (Q8NEB9 whole entry): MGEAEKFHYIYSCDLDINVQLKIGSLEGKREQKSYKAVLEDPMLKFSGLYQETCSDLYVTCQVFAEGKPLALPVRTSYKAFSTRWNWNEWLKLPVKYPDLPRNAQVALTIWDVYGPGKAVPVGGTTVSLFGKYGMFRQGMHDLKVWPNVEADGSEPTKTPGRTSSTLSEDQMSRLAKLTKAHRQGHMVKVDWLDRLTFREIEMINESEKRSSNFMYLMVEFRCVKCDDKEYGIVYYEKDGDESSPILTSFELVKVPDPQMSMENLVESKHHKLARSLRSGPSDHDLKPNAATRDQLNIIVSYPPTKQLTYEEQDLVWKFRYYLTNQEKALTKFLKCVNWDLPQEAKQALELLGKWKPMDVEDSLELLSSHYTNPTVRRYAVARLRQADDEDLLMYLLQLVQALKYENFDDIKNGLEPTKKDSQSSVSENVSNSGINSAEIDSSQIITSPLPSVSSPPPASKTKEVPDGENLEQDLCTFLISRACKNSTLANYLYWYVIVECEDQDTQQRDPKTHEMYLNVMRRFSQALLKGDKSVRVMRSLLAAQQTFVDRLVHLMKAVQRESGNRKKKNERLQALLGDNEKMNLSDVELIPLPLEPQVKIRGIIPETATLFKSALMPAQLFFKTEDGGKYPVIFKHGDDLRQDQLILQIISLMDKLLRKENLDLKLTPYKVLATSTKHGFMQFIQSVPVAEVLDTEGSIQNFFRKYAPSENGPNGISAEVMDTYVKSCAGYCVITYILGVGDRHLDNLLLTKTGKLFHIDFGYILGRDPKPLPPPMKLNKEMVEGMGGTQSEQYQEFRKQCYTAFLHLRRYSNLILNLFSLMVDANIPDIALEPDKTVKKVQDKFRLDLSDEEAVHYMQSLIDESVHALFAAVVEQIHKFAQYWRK

| Percent Inhibition [%] | SMILES |
| --- | --- |
| >99 | Cc1ncc(-c2ccnc(NC(=O)C3CC3(F)F)c2)cc1NS(=O)(=O)N(C)C (single isomer, unassigned) [Compound I-499] |
| 94 | Cc1ncc(-c2ccnc(NC(=O)C3CC3(F)F)c2)cc1NS(=O)(=O)c1ccc(F)cc1F (single isomer, unassigned) [Compound I-267b, N-(5-{[(2,4-difluorophenyl)sulfonyl]amino}-6-methyl-3,4′-bipyridin-2′-yl)-2,2-difluorocyclopropanecarboxamide] |
| 99 | CC(=O)Nc1cc(-c2cnc(Cl)c(NS(=O)(=O)c3cn(C)nc3C(F)(F)F)c2C)ccn1 [Compound I-493, N-[6-chloro-4-methyl-5-({[1-methyl-3-(trifluoromethyl)-1H-pyrazol-4-yl]sulfonyl}amino)-3,4′-bipyridin-2′-yl]acetamide] |
| >99 | CC(=O)Nc1cc(-c2cnc(C)c(NS(=O)(=O)c3cccc(Cl)c3Cl)c2)ccn1 [Compound I-342, N-(5-{[(2,3-dichlorophenyl)sulfonyl]amino}-6-methyl-3,4′-bipyridin-2′-yl)acetamide] |

Same assay, conditions: IC50 range class

| IC50 [nM] | SMILES |
| --- | --- |
| 50 to 100 | CC(=O)Nc1cc(-c2cnc(Cl)c(C(=O)N(C)C)c2)ccn1 [Compound I-213, 2′-acetamido-6-chloro-N,N-dimethyl-3,4′-bipyridine-5-carboxamide] |
| > 100 | CC(=O)Nc1cc(-c2cnc3[nH]cc(CN4CCCC4)c3c2)ccn1 [Compound I-54, N-{4-[3-(pyrrolidin-1-ylmethyl)-1H-pyrrolo[2,3-b]pyridin-5-yl]pyridin-2-yl}acetamide] |
| 10 to 50 | CC(=O)Nc1cc(-c2cnc(Cl)c(NS(=O)(=O)c3ccc(F)cc3Cl)c2C)ccn1 [Compound I-290, N-(6-chloro-5-{[(2-chloro-4-fluorophenyl)sulfonyl]amino}-4-methyl-3,4′-bipyridin-2′-yl)acetamide] |
| 10 to 50 | CNC1CN(c2cc(-c3ccnc(NC(C)=O)c3)cnc2C)S(=O)(=O)C1 (centres unmarked) [Compound I-325, N-{6-methyl-5-[4-(methylamino)-1,1-dioxidoisothiazolidin-2-yl]-3,4′-bipyridin-2′-yl}acetamide] |
| < 10 | CC(=O)Nc1cc(-c2cnc(C)c(NS(=O)(=O)c3ccc(F)cc3F)c2)c(F)cn1 [Compound I-161, N-(5-{[(2,4-difluorophenyl)sulfonyl]amino}-5′-fluoro-6-methyl-3,4′-bipyridin-2′-yl)acetamide] |
| < 10 | CC(=O)Nc1cc(-c2cnc3[nH]cc(S(=O)(=O)N(C)C)c3c2)ccn1 [Compound I-40, N-{4-[3-(dimethylsulfamoyl)-1H-pyrrolo[2,3-b]pyridin-5-yl]pyridin-2-yl}acetamide] |
| 10 to 50 | CC(=O)Nc1cc(-c2cnc(N)c(S(=O)(=O)Cc3ccccc3C(F)(F)F)c2)ccn1 [Compound I-50, N-(6-amino-5-{[2-(trifluoromethyl)benzyl]sulfonyl}-3,4′-bipyridin-2′-yl)acetamide] |
| 10 to 50 | CC(=O)Nc1cc(-c2cnc(C)c(N3CC(NCc4ccccc4)CS3(=O)=O)c2)ccn1 (centres unmarked) [Compound I-357, N-{5-[4-(benzylamino)-1,1-dioxidoisothiazolidin-2-yl]-6-methyl-3,4′-bipyridin-2′-yl}acetamide] |
| 10 to 50 | CC(=O)Nc1cc(-c2cnc(C)c(NS(=O)(=O)N3CCC(C)(C)CC3)c2)ccn1 [Compound I-483, N-(5-{[(4,4-dimethylpiperidin-1-yl)sulfonyl]-amino}-6-methyl-3,4′-bipyridin-2′-yl)acetamide] |
| 50 to 100 | CC(=O)Nc1cc(-c2cnc(C)c(C(=O)N(C)C)c2)ccn1 [Compound I-75, 2′-acetamido-N,N,6-trimethyl-3,4′-bipyridin-5-carboxamide] |
| 10 to 50 | Cc1c(-c2ccnc(NC(=O)C3CC3(F)F)c2)cnc(Cl)c1NS(=O)(=O)c1ccc(F)cc1F (centres unmarked) [Compound I-254, N-(6-chloro-5-{[(2,4-difluorophenyl)sulfonyl]amino}-4-methyl-3,4′-bipyridin-2′-yl)-2,2-difluorocyclopropanecarboxamide] |
| < 10 | CC(=O)Nc1cc(-c2cnc(C)c(NS(=O)(=O)c3ccccc3)c2)ccn1 [Compound I-84, N-{6-methyl-5-[(phenylsulfonyl)amino]-3,4′-bipyridin-2′-yl}acetamide] |
| 10 to 50 | CC(=O)Nc1cc(-c2cncc(S(=O)(=O)NC3C4CC5CC(C4)CC3C5)c2)ccn1 (centres unmarked) [Compound I-318, N-[5-(adamantan-2-ylsulfamoyl)-3,4′-bipyridin-2′-yl]acetamide] |
| 50 to 100 | CC(=O)Nc1cc(-c2cnc(N)c(C(=O)Nc3cc(C)cnn3)c2)ccn1 [Compound I-121, 2′-acetamido-6-amino-N-(5-methylpyridazin-3-yl)-3,4′-bipyridine-5-carboxamide] |
| 10 to 50 | COc1nccc(Nc2cc(-c3cnc(N)c(C(=O)N(C)C45CC(C4)C5)c3)ccn2)n1 [Compound I-230, 6-amino-N-(bicyclo[1.1.1]pent-1-yl)-2′-((2-methoxypyrimidin-4-yl)amino)-N-methyl-[3,4′-bipyridine]-5-carboxamide] |
| < 10 | CC(=O)Nc1cc(-c2cnc(C)c(NS(=O)(=O)c3ccccc3C)c2)ccn1 [Compound I-211, N-(6-methyl-5-{[(2-methylphenyl)sulfonyl]amino}-3,4′-bipyridin-2′-yl)acetamide] |
| 10 to 50 | Cc1nccc(Nc2cc(-c3cnc(O)c(S(=O)(=O)NC4CCC4)c3)ccn2)n1 [Compound I-279, N-cyclobutyl-6-hydroxy-2′-[(2-methylpyrimidin-4-yl)amino]3,4′-bipyridine-5-sulfonamide] |
| 10 to 50 | CNS(=O)(=O)c1cc(-c2ccnc(NC(C)=O)c2)cnc1N [Compound I-89, N-[6-amino-5-(methylsulfamoyl)-3,4′-bipyridin-2′-yl]acetamide] |
| 10 to 50 | Cc1ncc(-c2ccnc(NC(=O)C3CC3(F)F)c2)cc1NS(=O)(=O)N(C)C (single isomer, unassigned) [Compound I-499] |
| 10 to 50 | CNc1ncc(-c2ccnc(Nc3ccncn3)c2)cc1C(=O)N(C)C12CC(C1)C2 [Compound I-222, N-(bicyclo[1.1.1]pent-1-yl)-N-methyl-6-(methylamino)-2′-(pyrimidin-4-ylamino)-3,4′-bipyridine-5-carboxamide] |

| IC50 [nM] | SMILES |
| --- | --- |
| 10 to 50 | CC(=O)Nc1cc(-c2cnc3c(c2)S(=O)(=O)N(C24CC(C2)C4)CCO3)ccn1 [Compound I-376, N-{4-[2-(bicyclo[1.1.1]pent-1-yl)-1,1-dioxido-3,4-dihydro-2H-pyrido[2,3-b][1,4,5]oxathiazepin-8-yl]pyridin-2-yl}acetamide] |
| 50 to 100 | COC(=O)Nc1cc(-c2cncc(C(=O)C3CC3)c2)ccn1 [Compound I-180] |
| < 10 | CC(=O)Nc1cc(-c2cnc(C)c(NS(=O)(=O)c3ccc(Cl)cc3)c2)ccn1 [Compound I-154, N-(5-{[(4-chlorophenyl)sulfonyl]amino}-6-methyl-3,4′-bipyridin-2′-yl)acetamide] |
| 10 to 50 | CC(=O)Nc1cc(-c2cnc3cnn(S(=O)(=O)C4CC4)c3c2)ccn1 [Compound I-2, N-{4-[1-(cyclopropylsulfonyl)-1H-pyrazolo[4,3-b]pyridin-6-yl]pyridin-2-yl}acetamide] |
| 10 to 50 | CC(=O)Nc1cc(-c2cnc(Cl)c(NS(=O)(=O)c3ccccc3)c2C)ccn1 [Compound I-312, N-{6-chloro-4-methyl-5-[(phenylsulfonyl)amino]-3,4′-bipyridin-2′-yl}acetamide] |
| 10 to 50 | CC(=O)Nc1cc(-c2cnc(C)c(NS(=O)(=O)c3cccc(F)c3Cl)c2)ccn1 [Compound I-322, N-(5-{[(2-chloro-3-fluorophenyl)sulfonyl]amino}-6-methyl-3,4′-bipyridin-2′-yl)acetamide] |
| 10 to 50 | Cc1ncc(-c2ccnc(NC(=O)C3CC3(F)F)c2)cc1NS(=O)(=O)c1ccc(F)cc1F (single isomer, unassigned) [Compound I-267b, N-(5-{[(2,4-difluorophenyl)sulfonyl]amino}-6-methyl-3,4′-bipyridin-2′-yl)-2,2-difluorocyclopropanecarboxamide] |
| 10 to 50 | CCS(=O)(=O)c1cc(-c2ccnc(NC(C)=O)c2)cnc1N [Compound I-69, N-[6-amino-5-(ethylsulfonyl)-3,4′-bipyridin-2′-yl]acetamide] |
| < 10 | COc1cc(C)ccc1S(=O)(=O)Nc1cc(-c2ccnc(NC(C)=O)c2)cnc1C [Compound I-142, N-(5-{[(2-methoxy-4-methylphenyl)sulfonyl]amino}-6-methyl-3,4′-bipyridin-2′-yl)acetamide] |
| 10 to 50 | CNc1c(Cl)ncc(-c2ccnc(Nc3ccnc(C)n3)c2)c1C [Compound I-256, 6-chloro-N-5-4-dimethyl-N-2-(2-methylpyrimidin-4-yl)-3,4′-bipyridine-2′,5-diamine] |
| 10 to 50 | CC(=O)Nc1cc(-c2cnc(C)c(N3CC=CS3(=O)=O)c2)ccn1 [Compound I-416, N-[5-(1,1-dioxidoisothiazol-2(3H)-yl)-6-methyl-3,4′-bipyridin-2′-yl]acetamide] |
| 50 to 100 | CC(=O)Nc1cc(-c2cncc(N(C)C(=O)c3ccc(F)cc3F)c2)ccn1 [Compound I-397, N-(2′-acetamido-3,4′-bipyridin-5-yl)-2,4-difluoro-N-methylbenzamide] |
| < 10 | CC(=O)Nc1cc(-c2cnc(C)c(NS(=O)(=O)c3ccc(F)c(F)c3)c2)ccn1 [Compound I-59, N-(5-{[(3,4-difluorophenyl)sulfonyl]amino}-6-methyl-3,4′-bipyridin-2′-yl)acetamide] |
| 10 to 50 | CC(=O)Nc1cc(-c2cnc(Cl)c(NS(=O)(=O)c3c(Cl)cccc3Cl)c2C)ccn1 [Compound I-354, N-(6-chloro-5-{[(2,6-dichlorophenyl)sulfonyl]amino}-4-methyl-3,4′-bipyridin-2′-yl)acetamide] |
| < 10 | CC(=O)Nc1cc(-c2cnc(N)c(C(=O)N3CCCCC3)c2)ccn1 [Compound I-10, N-[6-amino-5-(piperidin-1-ylcarbonyl)-3,4′-bipyridin-2′-yl]acetamide] |
| 10 to 50 | COc1ncc(-c2ccnc(NC(C)=O)c2)cc1S(=O)(=O)Nc1cc(F)ccc1F [Compound I-358, N-{5-[(2,5-difluorophenyl)sulfamoyl]-6-methoxy-3,4′-bipyridin-2′-yl}acetamide] |
| 10 to 50 | CC(=O)Nc1cc(-c2cnc(Cl)c(NS(=O)(=O)c3cn(C)nc3C(F)(F)F)c2C)ccn1 [Compound I-493, N-[6-chloro-4-methyl-5-({[1-methyl-3-(trifluoromethyl)-1H-pyrazol-4-yl]sulfonyl}amino)-3,4′-bipyridin-2′-yl]acetamide] |
| 10 to 50 | CC(=O)Nc1cc(-c2cncc(S(=O)(=O)N3CCC(F)(F)C3)c2)ccn1 [Compound I-118, N-{5-[(3,3-difluoropyrrolidin-1-yl)sulfonyl]-3,4′-bipyridin-2′-yl}acetamide] |
| < 10 | Cc1ncc(-c2ccnc(Nc3ncccn3)c2)cc1NS(=O)(=O)c1ccc(F)cc1F [Compound I-265, 2,4-difluoro-N-[6-methyl-2′-(pyrimidin-2-ylamino)3,4′-bipyridin-5-yl]benzenesulfonamide] |
| < 10 | CC(=O)Nc1cc(-c2cnc(C)c(NS(=O)(=O)c3cccc(Cl)c3Cl)c2)ccn1 [Compound I-342, N-(5-{[(2,3-dichlorophenyl)sulfonyl]amino}-6-methyl-3,4′-bipyridin-2′-yl)acetamide] |

From US9751854B2 (Millennium Pharmaceuticals, Inc., priority 2014, dated 2017)
